# Measured values: patent US20240335541A1, “NANOMATERIALS COMPRISING DIAMINES” (Beam Therapeutics Inc., priority 2021, published 2024)
# Assays:
# [1] = LNP hydrodynamic diameter and polydispersity by DLS (Example 1 LNPs); format: physicochemical; settings: LNPs prepared according to Example 1, total lipid to NA mass ratio 11.7
# Description: LNPs were prepared with a total lipid to NA mass ratio of 11.7. LNPs were formed by microfluidic mixing of the lipid and NA solutions using a Precision Nanosystems NanoAssemblr Spark or Benchtop series Instruments, according to the manufacturers protocol. A ratio of aqueous to organic solvent of approximately 2:1 or 3:1 was maintained during mixing using differential flow rates. After mixing, LNPs were collected, diluted in PBS (approximately 1:1 v/v). Further buffer exchange was conducted using dialysis in PBS at 4° C. for 4 to 24 hours against a 20 kDa filter. After this initial dialysis, each individual LNP preparation was characterized via dynamic light scattering (DLS) to measure the size (e.g., diameter) and polydispersity. In addition, pKa of a subpopulation of LNPs was measured via a 2-(p-toluidino)-6-napthalene sulfonic acid (TNS) assay. LNPs falling within specific diameter and polydispersity ranges are pooled, and further dialyzed against phosphate buffer saline (PBS) at 4° C. for 1 to 4 hours against a 100 kDa dialysis cassette. After the second dialysis, LNPs were sterile filtered using […] filter and stored at 4° C. for further use.
# DLS-LNP hydrodynamic diameter and polydispersity index (PDI) were measured using high throughput dynamic light scattering (DLS) (DynaPro plate reader II, Wyatt). LNPs were diluted 1×PBS to an appropriate concentration and analyzed.
# Lipid nanoparticle components were dissolved in 100% ethanol at specified lipid component molar ratios. Nucleic acid (NA) cargo was dissolved in 10 mM citrate, 100 mM NaCl, pH 4.0, resulting in a concentration of NA cargo of approximately 0.22 mg/mL. In some embodiments, NA cargos included both a functional NA and a reporter DNA barcode mixed at mass ratios of 1:10 to 10:1 functional NA to barcode. LNPs were formulated with a total lipid to NA mass ratio of 11.7. LNPs were formed by microfluidic mixing of the lipid and NA solutions using a Precision Nanosystems NanoAssemblr Spark or Benchtop series Instruments, according to the manufacturer's protocol. A 2:1 or 3:1 ratio of aqueous to organic solvent was maintained during mixing using differential flow rates. After mixing, LNPs were collected, diluted in PBS (approximately 1:1 v/v), and further buffer exchange was conducted using dialysis in PBS at 4° C. for 8 to 24 hours against a 20 kDa filter. After this initial dialysis, each individual LNP formulation was characterized via DLS to measure the size and polydispersity, and the pKa of a subpopulation of LNPs is measured via TNS assay. After dialysis, LNPs were sterile filtered using 0.22 micron sterile filter and stored at 4° C. for further use.
# LNP hydrodynamic diameter and polydispersity index (PDI) were measured using high throughput dynamic light scattering (DLS) (DynaPro plate reader II, Wyatt). LNPs were diluted 1×PBS to an appropriate concentration and analyzed.
# [2] = LNP encapsulation efficiency, unlysed vs lysed LNPs, Qubit kit (Example 1 LNPs); format: physicochemical; settings: LNPs prepared according to Example 1; total lipid to NA mass ratio 11.7
# Description: Concentration of NA was determined by Qubit microRNA kit (for siRNA) or HS RNA kit (for mRNA) per manufacturer's instructions. Encapsulation efficiency was determined by measuring nucleic acid concentration in unlysed and lysed LNPs. Encapsulation efficiency was determined by measuring unlysed and lysed LNPs.
# human ALAS1 target site = test: In vivo base editing with LNP carrying adenine base editor mRNA and sgRNA, targeted deep sequencing; settings: 3.0 mg/kg dose IV; NBSGW mice engrafted with human CD34+ cells; four to six days post-dose
# Description: Exemplary LNP preparations were selected to determine each preparation's ability to perform base editing in a NBSGW mouse model as described herein.
# Lipid nanoparticle components were dissolved in 100% ethanol at specified lipid component molar ratios. mRNA encoding an adenine base editor and a chemically-modified sgRNA were dissolved at a mass ratio of 1:1 in 10 mM citrate, pH 3.0, resulting in a concentration of NA cargo of approximately 0.2 mg/mL.
# LNP preparations were formulated with molar ratios of 50% Ionizable Lipid: 38.5% Cholesterol: 1.5% PEG2000-DMG: 10% DSPC total lipid to NA mass ratio of 19 to 1.
# LNP preparations were formed by microfluidic mixing of the lipid and NA solutions using a Precision Nanosystems NanoAssemblr Spark series Instruments, according to the manufacturer's protocol.
# A 3:1 ratio of aqueous to organic solvent was maintained during mixing using differential flow rates. […] After this initial dialysis, each individual LNP preparation was characterized via dynamic light scattering (DLS) to measure size and polydispersity. pKa of a subpopulation of LNP preparations was measured via TNS assay. […]
# Age-matched mice were also used to administer vehicle (1×PBS) via tail vein injection as a control. […] Base editing was determined by performing targeted deep sequencing analysis at the human ALAS1 target site using extracted genomic DNA. […]
# [3] = LNP hydrodynamic diameter and PDI by DLS (Example 16 LNPs, Stunner); format: physicochemical; settings: Example 16 LNPs: 47.5% Ionizable Lipid: 40% cholesterol: 2.5% PEG-2000 DMG: 10% DPSC, N/P 4-8
# Description: (§1) LNPs were prepared with 47.5% Ionizable Lipid (e.g., a compound provided herein): 40% cholesterol: 2.5% PEG-2000 DMG: 10% DPSC and an N/P ratio range of 4-8. LNPs were formed by microfluidic mixing of the lipid and NA solutions using a Precision Nanosystems NanoAssemblr Spark or Benchtop series Instruments, according to the manufacturer's protocol. A ratio of aqueous to organic solvent of approximately 2:1 or 3:1 was maintained during mixing using differential flow rates. After mixing, LNPs were collected, diluted in phosphate buffer saline (PBS) or Tris-buffered saline (TBS) (approximately 1:1 v/v). Further buffer exchange was conducted using dialysis in PBS or TBS at 4° C. for 4 to 24 hours against a 20 kDa filter. After this initial dialysis, each individual LNP preparation was characterized via dynamic light scattering (DLS) to measure the size (e.g., diameter) and polydispersity. LNPs falling within specific diameter and polydispersity ranges were pooled, and further dialyzed against PBS or TBS at 4° C. for 1 to 4 hours against a 100 kDa dialysis cassette. After the second dialysis, LNPs were sterile filtered using 0.22 μm filter and stored at 4° C. for further use.
# LNP hydrodynamic diameter and polydispersity index (PDI) were measured using high throughput dynamic light scattering (DLS) (Stunner, Unchained Labs). LNPs were diluted 1×TBS or PBS to an appropriate concentration and analyzed.
# [4] = LNP encapsulation efficiency by Ribogreen assay (Example 16 LNPs); format: physicochemical; settings: Example 16 LNPs: 47.5% Ionizable Lipid: 40% cholesterol: 2.5% PEG-2000 DMG: 10% DPSC, N/P 4-8
# Description: as §1
# RNA concentration and encapsulation efficiency were determined by Ribogreen assay (BioTek Synergy LX plate reader).
SMILES,Mean Diameter [1] [nm],Mean PDI [1] [%],Mean Encapsulation Efficiency [2] [%],base editing in bulk bone marrow (human ALAS1 target site) [%],Mean Diameter [3] [nm],Mean PDI [3],Mean Encapsulation Efficiency [4] [%]
CC/C=C\CCCCOC(CCC(=O)OCCCCCCCN(CCO)CCCN(CCCCCCCOC(=O)CCC(OCCCC/C=C\CC)OCCCC/C=C\CC)CCCCCCCOC(=O)CCC(OCCCC/C=C\CC)OCCCC/C=C\CC)OCCCC/C=C\CC [Example 7-2],96.1,10.9,96.8,2.2,,,
"CC/C=C\CCCCOC(CCC(=O)OCCCCCCCN(CCCCCCCOC(=O)CCC(OCCCC/C=C\CC)OCCCC/C=C\CC)CCCN(CCO)CCCCCCCC(=O)OCCCCCCCCC)OCCCC/C=C\CC [Example 7-4, ((3-((2-hydroxyethyl)(8-(nonyloxy)-8-oxooctyl)amino)propyl)azanediyl)bis(heptane-7,1-diyl) bis(4,4-bis(((Z)-oct-5-en-1-yl)oxy)butanoate)]",106.9,15.4,97.5,,95.1,0.10,66.1
CC/C=C\CCCCOC(CCC(=O)OCCCCCCN(CCO)CCCN(CCCCCCCCCOC(=O)C(CCCC)CCCCCC)CCCCCCCCCOC(=O)C(CCCC)CCCCCC)OCCCC/C=C\CC (stereo not shown) [Example 7-8],165.2,19.3,85.4,,91.0,0.11,61.1
CC/C=C\CCCCOC(CCC(=O)OCCCCCCCN(CCO)CCN(CCCCCCCOC(=O)CCC(OCCCC/C=C\CC)OCCCC/C=C\CC)CCCCCCCOC(=O)CCC(OCCCC/C=C\CC)OCCCC/C=C\CC)OCCCC/C=C\CC [Example 7-11],79.8,9.4,96.4,,,,
"CC/C=C\CCCCOC(CCC(=O)OCCCCCCN(CCCCCCOC(=O)CCC(OCCCC/C=C\CC)OCCCC/C=C\CC)CCN(CCO)CCCCCCCC(=O)OCCCCCCCCC)OCCCC/C=C\CC [Example 7-12, ((2-((2-hydroxyethyl)(8-(nonyloxy)-8-oxooctyl)amino)ethyl)azanediyl)bis(hexane-6,1-diyl) bis(4,4-bis(((Z)-oct-5-en-1-yl)oxy)butanoate)]",89.3,14.9,94.7,,74.4,0.11,76.5
"CC/C=C\CCCCOC(CCC(=O)OCCCCCCCN(CCCCCCCOC(=O)CCC(OCCCC/C=C\CC)OCCCC/C=C\CC)CCN(CCO)CCCCCCCC(=O)OCCCCCCCCC)OCCCC/C=C\CC [Example 7-13, ((2-((2-hydroxyethyl)(8-(nonyloxy)-8-oxooctyl)amino)ethyl)azanediyl)bis(heptane-7,1-diyl) bis(4,4-bis(((Z)-oct-5-en-1-yl)oxy)butanoate)]",93.7,14.3,95.9,,86.2,0.10,75.4
CC/C=C\CCCCOC(CCC(=O)OCCCCCCN(CCO)CCN(CCCCCCCCCOC(=O)C(CCCC)CCCCCC)CCCCCCCCCOC(=O)C(CCCC)CCCCCC)OCCCC/C=C\CC (stereo not shown) [Example 7-15],77.9,9.2,95.6,,77.3,0.10,70.1
CC/C=C\CCCCOC(CCC(=O)OCCCCCCCN(CCCO)CCN(CCCCCCCOC(=O)CCC(OCCCC/C=C\CC)OCCCC/C=C\CC)CCCCCCCOC(=O)CCC(OCCCC/C=C\CC)OCCCC/C=C\CC)OCCCC/C=C\CC [Example 7-17],85.9,10.8,97.2,,,,
"CC/C=C\CCCCOC(CCC(=O)OCCCCCCCN(CCCCCCCOC(=O)CCC(OCCCC/C=C\CC)OCCCC/C=C\CC)CCN(CCCO)CCCCCCCC(=O)OCCCCCCCCC)OCCCC/C=C\CC [Example 7-19, ((2-((3-hydroxypropyl)(8-(nonyloxy)-8-oxooctyl)amino)ethyl)azanediyl)bis(heptane-7,1-diyl) bis(4,4-bis(((Z)-oct-5-en-1-yl)oxy)butanoate)]",100.8,13.2,92.9,,90.6,0.13,70.0
